Laboratory results published in US8367328B2, “Method for synthesizing DNA” (Takara Bio Inc., priority 1998, dated 2013).

What was measured:
Pyrobest DNA Polymerase = assay: PCR with Pyrobest DNA Polymerase in the presence of cationic complexes; type: biochemical, Pyrococcus sp.; settings: for Amount of amplified DNA relative to No Addition (=1), Pyrobest: 100 pg E. coli JM109 genomic DNA, primers Eco1/Eco2, 30 cycles 98°C 5 s–68°C 2 min, FM-BIO 100
ExTaq DNA Polymerase = assay: PCR with ExTaq DNA Polymerase in the presence of cationic complexes; type: biochemical; settings: for Amount of amplified DNA relative to No Addition (=1), ExTaq: 100 pg E. coli JM109 genomic DNA, primers Eco1/Eco2, 30 cycles 98°C 5 s–68°C 1 min, FM-BIO 100
Excerpt: Using hexaamminecobalt (III) chloride ([Co(NH3)6]Cl3) (manufactured by Sigma), tris(ethylenediamine)cobalt (III) chloride ([Co(C2H8N2)3]Cl3) (manufactured by Aldrich), or tris(ethylenediamine)rhodium (III) trichloride•trihydrate ([Rh(C2H8N2)3]Cl3.3H2O) (manufactured by Aldrich), the effects on the amplification reaction by various kinds of DNA polymerases were examined. As the DNA polymerases, TaKaRa Taq DNA Polymerase (hereinafter referred to as “Taq DNA Polymerase” manufactured by Takara Shuzo Co., Ltd.), Pyrobest DNA Polymerase (manufactured by Takara Shuzo Co., Ltd.) and Ex Taq DNA Polymerase (manufactured by Takara Shuzo Co., Ltd.) were used.
A reaction mixture comprising Escherichia coli JM109 genomic DNA as a template, primers Eco1 and Eco2 as a primer pair, and DNA polymerase was prepared, and PCR was carried out. The compositions of the reaction mixture for each enzyme are as follows.
a reaction mixture comprising 5 μl of 10-fold concentrated buffer for TaKaRa ExTaq DNA Polymerase (manufactured by Takara Shuzo Co., Ltd.), 0.2 mM each of dATP, dCTP, dGTP and dTTP, 100 pg of Escherichia coli JM109 genomic DNA, 1.25 U of TaKaRa EX-Taq DNA Polymerase, and 10 pmol each of primers Eco1 and Eco2 (a final volume being 50 μl).
Further, an aqueous solution of the above-mentioned complexes each so as to have a final concentration of 50 μM, 100 μM, or 200 μM was added to the above reaction mixture.
The reaction was carried out in Fast mode by using TaKaRa PCR Thermal Cycler Personal (manufactured by Takara Shuzo Co., Ltd.). The reaction conditions are as follows. When using Taq DNA Polymerase and Pyrobest DNA Polymerase, the reaction in 30 cycles was carried out for each of these reaction mixtures, wherein one cycle of reaction comprises a process consisting of 98° C., 5 seconds—68° C., 2 minutes, and when using ExTaq DNA Polymerase, the reaction in 30 cycles was carried out for each of these reaction mixtures, wherein one cycle of reaction comprises a process consisting of 98° C., 5 seconds—68° C., 1 minute. After the termination of the reaction, 5 μl of the resulting reaction mixture was subjected to electrophoresis on 2% agarose gel containing ethidium bromide in an amount of 0.00005%. The gel after the electrophoresis was subjected to ultraviolet irradiation to visualize the band ascribed to the amplified product, whereby an amplified fragment was confirmed. The amount of amplified DNA was numerically explained by using a fluorescent image analyzer FM-BIO 100 (manufactured by Takara Shuzo Co., Ltd.). […]
After the termination of the reaction, 5 μL of the resulting reaction mixture was subjected to electrophoresis on 2% agarose gel containing ethidium bromide in an amount of 0.00005%. The gel after the electrophoresis was subjected to ultraviolet irradiation to visualize the band ascribed to the amplified product, whereby an amplified fragment was confirmed.
The DNA polymerases used and the composition for the reaction mixture were similar to those in Example 17, except for the cationic complex, where in cases of using Taq DNA Polymerase and Pyrobest DNA Polymerase, hexaamminecobalt (III) chloride was added so as to have a final concentration of 100 μM, or in a case of using ExTaq DNA Polymerase, hexaamminecobalt (III) chloride was added so as to have a final concentration of 50 μM, respectively. Further, the amount of template DNA was added so as to be 1 pg, 5 pg, 10 pg, 100 pg, or 1 ng, respectively.
The reaction was carried out in Fast mode by using TaKaRa PCR Thermal Cycler Personal. The reaction conditions are as follows. When using Taq DNA Polymerase and Pyrobest DNA Polymerase, the reaction in 30 cycles was carried out, wherein one cycle of reaction comprises a process consisting of 98° C., 5 seconds—68° C., 2 minutes. When using ExTaq DNA Polymerase, the reaction in 30 cycles was carried out, wherein one cycle of reaction comprises a process consisting of 98° C., 5 seconds—68° C., 1 minute. […]

KOD dash DNA Polymerase = assay: PCR with KOD dash DNA Polymerase in the presence of acidic substances; type: biochemical; settings: 12 kb fragment; 10 pg λDNA, primers λ1/λ9, 25 cycles 98°C 5 s–68°C 3 min; amount added 0.5 μg
Description: (2) The effects of the acidic substances were studied for KOD dash DNA Polymerase (manufactured by TOYOBO CO., LTD.), comprising a combination of DNA polymerase having 3′→5′ exonuclease activity, and DNA polymerase having no such activity. A reaction mixture comprising λDNA as a template, primers λ1 and λ9 as a primer pair was prepared, and PCR was carried out. In the following example, PCR was carried out in Fast mode by using TaKaRa PCR Thermal Cycler Personal (manufactured by Takara Shuzo Co., Ltd.). The composition of the reaction mixture is as follows. Composition of Reaction Mixture: exclusive buffer attached for KOD dash DNA Polymerase, 0.2 mM each of dATP, dCTP, dGTP and dTTP, 10 pg of λDNA, 2.5 U of KOD dash DNA Polymerase, and 10 pmol each of primers λ1 and λ9 (a final volume being 50 μl). Further, 1 ng of the sulfated-fucose-containing polysaccharide-F or 0.5 μg of sodium alginate was respectively added to the above reaction mixture.
The reaction was carried out in 25 cycles, wherein one cycle of reaction comprises a process consisting of 98° C., 5 seconds—68° C., 3 minutes. After the termination of the reaction, 5 μl of the resulting reaction mixture was subjected to electrophoresis on 1% agarose gel containing ethidium bromide in an amount of 0.00005%, whereby an amplified fragment was confirmed.

Compound	Amount of amplified DNA relative to No Addition (=1), Pyrobest (Pyrobest DNA Polymerase; complex 50 μM)	Amount of amplified DNA relative to No Addition (=1), Pyrobest (Pyrobest DNA Polymerase; complex 100 μM)	Amount of amplified DNA relative to No Addition (=1), ExTaq (ExTaq DNA Polymerase; complex 50 μM)	Amount of amplified DNA relative to No Addition (=1), ExTaq (ExTaq DNA Polymerase; complex 100 μM)	Amount of amplified DNA relative to No Addition (=1), Pyrobest (Pyrobest DNA Polymerase; complex 200 μM)	Amplification of desired long DNA fragment (Pyrobest DNA Polymerase; Pyrobest, 10 ng E. coli genome, primers Eco1/Eco5 (10 kb), 30 cycles 98°C 5 s–68°C 10 min, 50 μM or 100 μM, only slight without addition)	Primer amount with which a fragment can still be amplified (Pyrobest DNA Polymerase; Pyrobest, 100 μM complex, primers 2–20 pmol tested, no amplification without addition) [pmol]	Amount of template DNA at which amplification was still possible (Pyrobest DNA Polymerase; Pyrobest, 100 μM complex, templates 1 pg–1 ng tested, no amplification at 1 pg without addition) [pg]	Amplification in low-magnesium reaction mixture (Pyrobest DNA Polymerase; Pyrobest, 0.5 mM magnesium chloride (usual 1 mM), 100 μM complex, no amplification without addition)	Amplification with one-half the usual enzyme amount versus usual amount without addition (ExTaq DNA Polymerase; ExTaq 0.625 U + 50 μM complex vs 1.25 U without addition)	Primer amount with which a fragment can still be amplified (ExTaq DNA Polymerase; ExTaq, 50 μM complex, primers 2–20 pmol tested, no amplification without addition) [pmol]	Amount of template DNA at which amplification was still possible (ExTaq DNA Polymerase; ExTaq, 50 μM complex, templates 1 pg–1 ng tested, no amplification at 1 pg without addition) [pg]	Amplification in low-magnesium reaction mixture (ExTaq DNA Polymerase; ExTaq, 1.25 mM magnesium chloride (usual 2 mM), 10 μM complex, no amplification without addition)	Amount of amplified DNA relative to No Addition (=1), ExTaq (ExTaq DNA Polymerase; complex 200 μM)	Amplification Results (KOD dash DNA Polymerase)
NCCN.NCCN.NCCN.[Cl-].[Cl-].[Cl-].[Co+3] [[Co(H2NCH2CH2NH2)3]Cl3, tris(ethylenediamine)cobalt (III) chloride]	2.1	2.2	2.0	2.0	–	–	–	–	–	–	–	–	–	–	–
N.N.N.N.N.N.[Cl-].[Cl-].[Cl-].[Co+3] [[Co(NH3)6]Cl3, hexaamminecobalt (III) chloride]	2.1	2.1	1.9	1.9	2.1	excellently amplified	3.3	1	allowed to amplify	almost the same level	2.5	1	allowed to amplify	–	–
NCCN.NCCN.NCCN.O.O.O.[Cl][Rh]([Cl])[Cl] [[Rh(H2NCH2CH2NH2)3]Cl3, tris(ethylenediamine)rhodium (III) trichloride•trihydrate]	1.4	1.7	1.3	1.5	2.0	–	–	–	–	–	–	–	–	1.7	–
sodium alginate	–	–	–	–	–	–	–	–	–	–	–	–	–	–	++ (Intensive amplification being observed)
